Results on 1 compound are retold here after patent US20110319482A1, “NOVEL TREATMENTS” (priority 2008, published 2011).

Each structure is given as a SMILES string.

A short description of data set [1]: clinical trials, oral administration to man: plasma pharmacokinetics. The format is in vivo. To be noted: human, oral compositions as described in Table 1, administered orally to man. The text has this: When taken during a migraine attack TMAX may be more variable and prolonged.
Data set [2] relates to migraine with aura. Nature of the data set: single centre, double-blind, randomised, placebo controlled crossover study of prophylaxis of migraine in patients with migraine with aura. Format: in vivo. To be noted: 31 patients with migraine with aura, 20 or 40 mg po od, 12 week treatment period. How it is done: A single centre, double-blind, randomised, placebo controlled crossover study to evaluate the efficacy and tolerability of tonabersat in the prophylaxis of migraine in patients presenting with migraine with aura was conducted. Twelve week treatment period followed by a 4 week wash-out period before cross-over to 12 weeks treatment with the alternative trial medication. To investigate the efficacy of tonabersat compared to placebo in the reduction of the number of aura attacks and the number of migraine headache days in patients with migraine with aura. Following screening, patients were randomised to active or placebo treatment for 12 weeks. During the first two weeks of the treatment period, patients received treatment with tonabersat 20 mg (one tablet daily) or matching placebo. After two weeks, the dose was increased to tonabersat 40 mg per day (two tablets taken once daily [od]) with a similar increase in the number of placebo tablets taken. Depending on tolerability during the treatment period, the dose may have been reduced to 20 mg per day (or one placebo tablet) for the remainder of the treatment period. On completion of the first treatment period patients received placebo tablets (one tablet daily) for 4 weeks before starting the second treatment period when the alternative trial medication was administered. The design of the second period was the same as the first. […]

In the case of `CC(=O)c1ccc2c(c1)[C@H](NC(=O)c1ccc(F)c(Cl)c1)[C@H](O)C(C)(C)O2` [tonabersat, cis-6-acetyl-4-(S)-(3-chloro-4-fluorobenzoylamino)-3,4-dihydro-2,2-dimethyl-2H-1-benzopyran-3-(S)-ol], the half-life (usually the time needed for the level to fall by half in the phase considered) in data set [1] (read-out: terminal elimination half life) is 24 to 40 h. For the same compound, the Tmax in data set [1] (read-out: time to maximum plasma concentration (TMAX)) is 1 to 3 h. The “reduction in aura attacks compared to placebo” value in data set [2] (p=0.01) is listed as 50%. Moreover, the “reduction in migraine headache days compared to placebo” value in data set [2] (p=0.08) is given as 37.5%.
